One molecule from publication PMC7614683, “A small molecule PI3Kα activator for cardioprotection and neuroregeneration” (Nature, 2023) can be followed below.

Read-outs that look alike come from different tables or passages of the source.

Holding throughout (assay): SelectScreen Z-LYTE kinase activity assay (SI Table 6)
Holding throughout (format): biochemical

The target in assay [1] is protein kinases of the Z-LYTE panel (Homo sapiens, UniProt P78527). An outline of the steps: (§1)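 A counterscreen of 133 protein and 7 lipid kinases was run with one compound concentration, 1 μM 1938, in SelectScreen Adapta, Lantha or Z-LYTE assays.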
Sequence of protein kinases of the Z-LYTE panel (Homo sapiens, UniProt P78527) (P78527 whole entry): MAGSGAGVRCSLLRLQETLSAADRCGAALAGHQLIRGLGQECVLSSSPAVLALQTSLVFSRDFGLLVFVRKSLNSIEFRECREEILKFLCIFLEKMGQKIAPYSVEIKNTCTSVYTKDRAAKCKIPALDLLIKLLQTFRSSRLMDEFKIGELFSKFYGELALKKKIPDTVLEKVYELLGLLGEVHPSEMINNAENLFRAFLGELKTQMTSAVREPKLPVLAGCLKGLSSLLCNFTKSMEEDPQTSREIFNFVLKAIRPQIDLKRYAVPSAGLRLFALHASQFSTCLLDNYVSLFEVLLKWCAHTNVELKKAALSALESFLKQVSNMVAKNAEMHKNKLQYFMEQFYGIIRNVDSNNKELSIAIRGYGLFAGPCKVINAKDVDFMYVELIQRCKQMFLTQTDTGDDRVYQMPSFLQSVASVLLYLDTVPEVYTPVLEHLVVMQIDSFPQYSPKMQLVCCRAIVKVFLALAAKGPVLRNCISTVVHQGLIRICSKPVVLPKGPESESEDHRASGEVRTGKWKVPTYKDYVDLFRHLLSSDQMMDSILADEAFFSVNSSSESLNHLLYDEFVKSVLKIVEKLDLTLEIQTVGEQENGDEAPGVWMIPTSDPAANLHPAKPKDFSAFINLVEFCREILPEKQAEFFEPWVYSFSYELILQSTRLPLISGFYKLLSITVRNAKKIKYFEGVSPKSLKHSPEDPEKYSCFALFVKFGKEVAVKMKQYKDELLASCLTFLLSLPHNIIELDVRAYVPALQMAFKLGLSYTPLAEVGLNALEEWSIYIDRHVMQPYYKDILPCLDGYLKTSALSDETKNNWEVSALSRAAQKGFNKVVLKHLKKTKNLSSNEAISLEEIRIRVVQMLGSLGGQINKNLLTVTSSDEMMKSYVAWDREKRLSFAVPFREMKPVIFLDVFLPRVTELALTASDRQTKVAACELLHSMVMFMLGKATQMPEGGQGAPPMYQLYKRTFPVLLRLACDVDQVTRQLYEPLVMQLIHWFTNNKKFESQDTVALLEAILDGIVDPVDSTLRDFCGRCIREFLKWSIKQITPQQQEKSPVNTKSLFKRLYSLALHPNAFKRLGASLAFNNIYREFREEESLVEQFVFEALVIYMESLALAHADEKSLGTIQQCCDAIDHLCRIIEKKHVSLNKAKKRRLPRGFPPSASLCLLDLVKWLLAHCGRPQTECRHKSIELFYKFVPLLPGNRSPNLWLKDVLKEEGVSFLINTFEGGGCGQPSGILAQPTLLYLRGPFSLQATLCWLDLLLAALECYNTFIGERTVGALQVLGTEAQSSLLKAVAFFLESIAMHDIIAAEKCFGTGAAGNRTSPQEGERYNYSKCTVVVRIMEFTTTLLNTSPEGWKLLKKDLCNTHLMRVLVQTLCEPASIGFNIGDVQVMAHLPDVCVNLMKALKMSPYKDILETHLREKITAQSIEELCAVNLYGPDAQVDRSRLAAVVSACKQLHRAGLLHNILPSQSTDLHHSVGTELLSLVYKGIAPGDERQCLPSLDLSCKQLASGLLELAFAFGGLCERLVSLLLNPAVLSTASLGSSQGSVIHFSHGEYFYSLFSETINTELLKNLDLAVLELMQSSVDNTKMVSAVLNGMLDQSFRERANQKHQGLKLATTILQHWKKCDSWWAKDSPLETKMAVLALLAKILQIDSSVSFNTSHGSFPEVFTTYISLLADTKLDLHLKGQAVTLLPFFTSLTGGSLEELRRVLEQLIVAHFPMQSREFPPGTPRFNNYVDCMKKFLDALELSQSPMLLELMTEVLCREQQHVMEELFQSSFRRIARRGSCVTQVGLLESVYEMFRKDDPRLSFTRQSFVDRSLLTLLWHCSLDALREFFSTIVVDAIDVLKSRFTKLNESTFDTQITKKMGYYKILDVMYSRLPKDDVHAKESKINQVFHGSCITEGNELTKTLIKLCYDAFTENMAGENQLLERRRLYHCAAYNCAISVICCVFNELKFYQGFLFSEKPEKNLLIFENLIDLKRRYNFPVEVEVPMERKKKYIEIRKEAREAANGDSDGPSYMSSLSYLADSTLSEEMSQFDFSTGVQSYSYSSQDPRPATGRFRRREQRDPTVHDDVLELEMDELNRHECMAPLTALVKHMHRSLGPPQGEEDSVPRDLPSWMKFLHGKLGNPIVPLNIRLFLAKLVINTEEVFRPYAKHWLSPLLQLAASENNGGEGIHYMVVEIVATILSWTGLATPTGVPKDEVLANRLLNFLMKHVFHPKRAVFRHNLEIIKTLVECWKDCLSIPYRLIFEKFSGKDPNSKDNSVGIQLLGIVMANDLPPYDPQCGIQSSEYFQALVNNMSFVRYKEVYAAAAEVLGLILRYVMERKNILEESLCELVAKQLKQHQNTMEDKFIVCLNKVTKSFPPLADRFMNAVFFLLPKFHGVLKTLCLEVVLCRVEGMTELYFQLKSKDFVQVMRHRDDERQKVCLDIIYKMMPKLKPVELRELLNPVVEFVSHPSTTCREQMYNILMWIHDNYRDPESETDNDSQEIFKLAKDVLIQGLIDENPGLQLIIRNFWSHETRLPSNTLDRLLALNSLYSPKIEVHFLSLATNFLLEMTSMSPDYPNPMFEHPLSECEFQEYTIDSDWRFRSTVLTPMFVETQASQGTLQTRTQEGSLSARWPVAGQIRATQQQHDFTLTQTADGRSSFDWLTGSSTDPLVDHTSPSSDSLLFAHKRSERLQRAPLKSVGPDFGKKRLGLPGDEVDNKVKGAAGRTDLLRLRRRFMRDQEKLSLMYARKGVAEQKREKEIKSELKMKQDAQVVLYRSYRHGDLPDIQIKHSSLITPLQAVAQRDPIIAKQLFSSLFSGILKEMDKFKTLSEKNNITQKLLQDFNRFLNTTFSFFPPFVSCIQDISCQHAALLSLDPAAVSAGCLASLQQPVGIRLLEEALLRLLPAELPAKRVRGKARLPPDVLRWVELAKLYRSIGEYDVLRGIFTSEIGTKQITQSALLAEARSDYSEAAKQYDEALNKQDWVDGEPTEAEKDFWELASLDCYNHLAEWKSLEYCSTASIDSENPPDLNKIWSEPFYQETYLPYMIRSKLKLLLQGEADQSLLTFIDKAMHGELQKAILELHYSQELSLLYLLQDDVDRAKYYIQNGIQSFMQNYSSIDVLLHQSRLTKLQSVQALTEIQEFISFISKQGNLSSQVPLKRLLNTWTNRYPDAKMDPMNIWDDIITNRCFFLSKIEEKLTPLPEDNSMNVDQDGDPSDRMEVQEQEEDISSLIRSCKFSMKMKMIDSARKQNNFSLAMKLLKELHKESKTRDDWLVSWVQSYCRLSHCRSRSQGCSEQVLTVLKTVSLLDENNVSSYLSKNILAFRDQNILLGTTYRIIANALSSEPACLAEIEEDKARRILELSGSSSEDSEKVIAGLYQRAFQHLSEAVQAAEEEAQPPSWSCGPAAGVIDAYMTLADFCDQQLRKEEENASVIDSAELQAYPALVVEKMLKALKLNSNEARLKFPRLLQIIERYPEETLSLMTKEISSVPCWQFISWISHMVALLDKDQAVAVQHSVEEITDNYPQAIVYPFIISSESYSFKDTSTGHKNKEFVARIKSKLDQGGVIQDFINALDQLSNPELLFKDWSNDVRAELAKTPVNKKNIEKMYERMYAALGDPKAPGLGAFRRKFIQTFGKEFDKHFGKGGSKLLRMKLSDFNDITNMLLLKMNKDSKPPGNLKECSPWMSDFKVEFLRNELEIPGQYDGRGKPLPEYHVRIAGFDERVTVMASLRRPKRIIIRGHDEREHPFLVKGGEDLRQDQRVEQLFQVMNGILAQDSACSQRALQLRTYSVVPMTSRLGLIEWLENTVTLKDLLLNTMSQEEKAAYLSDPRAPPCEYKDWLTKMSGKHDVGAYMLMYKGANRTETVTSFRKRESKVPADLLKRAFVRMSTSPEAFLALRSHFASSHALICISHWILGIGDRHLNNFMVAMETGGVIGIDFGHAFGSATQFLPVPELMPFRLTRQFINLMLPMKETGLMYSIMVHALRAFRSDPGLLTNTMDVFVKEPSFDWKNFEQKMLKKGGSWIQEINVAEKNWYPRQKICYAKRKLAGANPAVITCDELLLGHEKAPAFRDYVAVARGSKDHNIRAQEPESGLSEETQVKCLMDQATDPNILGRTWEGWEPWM
Assay [2] addresses T1, protein kinases of the Z-LYTE panel (Homo sapiens, UniProt P52333).
T1 sequence (P52333 1-1124): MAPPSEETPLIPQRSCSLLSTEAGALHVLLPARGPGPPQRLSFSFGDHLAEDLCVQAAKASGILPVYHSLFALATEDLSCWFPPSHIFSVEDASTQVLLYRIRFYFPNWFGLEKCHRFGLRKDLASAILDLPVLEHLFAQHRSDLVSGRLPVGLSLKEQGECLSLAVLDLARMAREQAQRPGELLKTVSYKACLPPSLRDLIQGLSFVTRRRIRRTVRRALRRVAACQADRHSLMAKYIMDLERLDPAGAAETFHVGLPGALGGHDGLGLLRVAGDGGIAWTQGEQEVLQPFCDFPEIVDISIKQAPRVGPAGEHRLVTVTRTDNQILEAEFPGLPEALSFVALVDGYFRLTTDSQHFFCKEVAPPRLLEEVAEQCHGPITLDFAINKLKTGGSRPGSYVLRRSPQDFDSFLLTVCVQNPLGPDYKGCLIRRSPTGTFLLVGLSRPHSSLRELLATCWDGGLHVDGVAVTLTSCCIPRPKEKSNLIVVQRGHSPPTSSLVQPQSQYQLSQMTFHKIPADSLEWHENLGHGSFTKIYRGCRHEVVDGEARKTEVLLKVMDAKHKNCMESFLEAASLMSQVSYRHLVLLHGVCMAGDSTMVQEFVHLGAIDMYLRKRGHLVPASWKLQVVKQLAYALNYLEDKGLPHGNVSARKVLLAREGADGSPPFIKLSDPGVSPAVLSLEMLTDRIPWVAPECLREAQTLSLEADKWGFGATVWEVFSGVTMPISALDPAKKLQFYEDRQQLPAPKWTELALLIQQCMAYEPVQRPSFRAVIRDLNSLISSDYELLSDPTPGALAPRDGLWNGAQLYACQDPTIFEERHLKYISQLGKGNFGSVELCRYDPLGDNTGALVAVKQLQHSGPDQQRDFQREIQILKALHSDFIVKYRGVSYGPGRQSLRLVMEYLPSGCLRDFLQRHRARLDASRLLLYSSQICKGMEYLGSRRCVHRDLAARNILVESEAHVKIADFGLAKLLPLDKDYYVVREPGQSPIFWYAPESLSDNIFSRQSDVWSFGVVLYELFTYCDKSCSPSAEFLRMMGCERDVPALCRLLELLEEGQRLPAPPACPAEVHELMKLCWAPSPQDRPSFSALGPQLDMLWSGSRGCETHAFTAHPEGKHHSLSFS
An outline of the steps:
as §1

Assay [3] deals with protein kinases of the Z-LYTE panel (Homo sapiens, UniProt Q05397). An outline of the steps:
as §1

Sequence of protein kinases of the Z-LYTE panel (Homo sapiens, UniProt Q05397) (Q05397 whole entry): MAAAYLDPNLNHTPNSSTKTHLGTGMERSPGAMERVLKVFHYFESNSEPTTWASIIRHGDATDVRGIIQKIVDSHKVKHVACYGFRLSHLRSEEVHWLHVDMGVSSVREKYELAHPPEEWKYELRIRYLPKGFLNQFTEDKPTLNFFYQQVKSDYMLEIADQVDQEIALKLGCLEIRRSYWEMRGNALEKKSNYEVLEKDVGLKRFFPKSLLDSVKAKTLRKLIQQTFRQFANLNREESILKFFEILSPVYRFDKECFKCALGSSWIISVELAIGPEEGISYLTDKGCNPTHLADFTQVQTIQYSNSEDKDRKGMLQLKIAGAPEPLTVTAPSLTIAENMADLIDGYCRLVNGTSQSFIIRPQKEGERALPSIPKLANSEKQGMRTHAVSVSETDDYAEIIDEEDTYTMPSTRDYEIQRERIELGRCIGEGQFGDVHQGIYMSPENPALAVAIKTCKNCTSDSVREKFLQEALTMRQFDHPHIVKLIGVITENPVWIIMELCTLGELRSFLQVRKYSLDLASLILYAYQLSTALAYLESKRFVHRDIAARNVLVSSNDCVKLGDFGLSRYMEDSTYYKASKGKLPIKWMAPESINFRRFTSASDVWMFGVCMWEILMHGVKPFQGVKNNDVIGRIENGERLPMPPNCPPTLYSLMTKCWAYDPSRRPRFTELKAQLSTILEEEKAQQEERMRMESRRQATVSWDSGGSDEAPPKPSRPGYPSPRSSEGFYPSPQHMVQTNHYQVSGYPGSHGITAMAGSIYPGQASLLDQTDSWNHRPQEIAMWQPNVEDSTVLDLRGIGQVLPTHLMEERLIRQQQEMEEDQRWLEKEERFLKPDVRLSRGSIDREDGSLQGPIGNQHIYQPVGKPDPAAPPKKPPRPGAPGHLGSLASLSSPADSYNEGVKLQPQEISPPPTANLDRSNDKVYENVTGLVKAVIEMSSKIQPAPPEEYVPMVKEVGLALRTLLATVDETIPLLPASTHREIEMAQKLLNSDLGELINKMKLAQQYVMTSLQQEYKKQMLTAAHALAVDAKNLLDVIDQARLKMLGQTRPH

Consider `CCN1CCN(c2ccc(Nc3cc(Nc4cccc5c4N(C(C)=O)CC5)ccn3)cc2)CC1` [Compound 1938], for which the inhibition at 1 µM stood at 9.47% in assay [1] (read-out: % Inhibition Point 1); 10% in assay [1] (read-out: % Inhibition Point 2); 10% in assay [1] (read-out: % Inhibition mean); 3% in assay [2] (read-out: % Inhibition Point 1); 1.12% in assay [2] (read-out: % Inhibition Point 2); 2% in assay [2] (read-out: % Inhibition mean). For the same molecule, the inhibition at 1 µM in assay [3] (read-out: % Inhibition Point 1), in assay [3] (read-out: % Inhibition Point 2) and in assay [3] (read-out: % Inhibition mean) was 47% throughout.

For orientation: inhibition means the change of the read-out against control, counted positive when it falls.
